Consider two compounds from ChEMBL document CHEMBL4400532, “Histone methyl transferases: A class of epigenetic opportunities to counter uncontrolled cell proliferation” (Eur J Med Chem, 2019).

The subject of assay [1] is HCT-116. Briefly: Cytotoxicity against human HCT116 cells after 72 hrs by CCK8 assay. Type of assay: functional, cell-based. The note with it: HCT-116, 72 h.
In assay [2] the test system is PC-14. Nature of the assay: Cytotoxicity against human PC14 cells after 72 hrs by CCK8 assay. Type of assay: functional, cell-based. The note with it: PC-14, 72 h. (In general: Tetrazolium dyes change colour on reduction, which living cells bring about.)
In assay [3] the test system is CCD-18Co. Nature of the assay: Cytotoxicity against human CCD-18Co cells after 72 hrs by CCK8 assay. The format is cell-based.
For assay [4], the system named is HFL1. Nature of the assay: Cytotoxicity against human HFL1 cells after 72 hrs by CCK8 assay. The format is cell-based. To be noted: HFL1, 72 h.
The test system of assay [5] is A549. Briefly: Cytotoxicity against human A549 cells after 72 hrs by CCK8 assay. Type of assay: functional, cell-based. To be noted: A549, 72 h.
Assay [6] deals with T1, Histone-lysine N-methyltransferase EHMT2 (Homo sapiens, UniProt Q96KQ7).
T1 sequence (Q96KQ7 whole entry): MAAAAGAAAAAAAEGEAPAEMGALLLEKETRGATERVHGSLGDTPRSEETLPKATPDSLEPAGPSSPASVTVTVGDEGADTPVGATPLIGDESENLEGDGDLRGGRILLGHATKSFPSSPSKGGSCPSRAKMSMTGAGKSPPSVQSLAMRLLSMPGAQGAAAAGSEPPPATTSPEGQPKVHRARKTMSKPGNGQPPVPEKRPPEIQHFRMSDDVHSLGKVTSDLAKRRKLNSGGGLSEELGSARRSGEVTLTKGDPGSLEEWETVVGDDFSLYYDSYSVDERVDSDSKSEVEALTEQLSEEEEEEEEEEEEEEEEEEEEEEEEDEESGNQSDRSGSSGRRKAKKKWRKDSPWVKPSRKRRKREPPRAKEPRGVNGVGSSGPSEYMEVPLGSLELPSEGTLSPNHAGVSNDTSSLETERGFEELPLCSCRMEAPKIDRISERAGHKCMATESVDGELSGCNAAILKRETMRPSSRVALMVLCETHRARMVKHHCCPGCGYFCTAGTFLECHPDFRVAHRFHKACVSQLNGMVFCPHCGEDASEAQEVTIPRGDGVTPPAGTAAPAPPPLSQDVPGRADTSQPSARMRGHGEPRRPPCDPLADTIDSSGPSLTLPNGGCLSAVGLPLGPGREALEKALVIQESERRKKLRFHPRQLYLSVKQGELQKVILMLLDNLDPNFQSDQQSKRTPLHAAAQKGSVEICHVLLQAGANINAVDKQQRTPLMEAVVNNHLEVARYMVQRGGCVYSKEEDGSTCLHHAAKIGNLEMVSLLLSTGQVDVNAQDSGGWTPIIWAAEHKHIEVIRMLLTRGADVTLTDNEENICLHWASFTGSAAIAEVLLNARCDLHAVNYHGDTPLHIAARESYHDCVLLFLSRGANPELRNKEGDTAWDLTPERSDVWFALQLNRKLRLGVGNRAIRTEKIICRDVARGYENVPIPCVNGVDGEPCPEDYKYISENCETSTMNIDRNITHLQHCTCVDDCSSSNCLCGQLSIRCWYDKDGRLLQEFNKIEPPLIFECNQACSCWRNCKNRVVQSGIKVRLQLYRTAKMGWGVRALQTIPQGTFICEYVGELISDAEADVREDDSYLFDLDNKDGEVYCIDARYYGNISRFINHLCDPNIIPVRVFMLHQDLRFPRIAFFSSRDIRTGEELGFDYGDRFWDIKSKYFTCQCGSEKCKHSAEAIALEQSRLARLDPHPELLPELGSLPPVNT
Briefly: Inhibition of EHMT2 (unknown origin).

Assay [7] addresses Protein arginine N-methyltransferase 5 (Homo sapiens, UniProt O14744). Nature of the assay: Inhibition of PRMT5 (unknown origin).
Assay [8] concerns the target Histone-lysine N-methyltransferase EZH2 (Homo sapiens, UniProt Q15910). Nature of the assay: Inhibition of EZH2 (unknown origin).
The target in assay [9] is T2, Histone-arginine methyltransferase CARM1 (Homo sapiens, UniProt Q86X55).
T2 sequence (Q86X55 whole entry): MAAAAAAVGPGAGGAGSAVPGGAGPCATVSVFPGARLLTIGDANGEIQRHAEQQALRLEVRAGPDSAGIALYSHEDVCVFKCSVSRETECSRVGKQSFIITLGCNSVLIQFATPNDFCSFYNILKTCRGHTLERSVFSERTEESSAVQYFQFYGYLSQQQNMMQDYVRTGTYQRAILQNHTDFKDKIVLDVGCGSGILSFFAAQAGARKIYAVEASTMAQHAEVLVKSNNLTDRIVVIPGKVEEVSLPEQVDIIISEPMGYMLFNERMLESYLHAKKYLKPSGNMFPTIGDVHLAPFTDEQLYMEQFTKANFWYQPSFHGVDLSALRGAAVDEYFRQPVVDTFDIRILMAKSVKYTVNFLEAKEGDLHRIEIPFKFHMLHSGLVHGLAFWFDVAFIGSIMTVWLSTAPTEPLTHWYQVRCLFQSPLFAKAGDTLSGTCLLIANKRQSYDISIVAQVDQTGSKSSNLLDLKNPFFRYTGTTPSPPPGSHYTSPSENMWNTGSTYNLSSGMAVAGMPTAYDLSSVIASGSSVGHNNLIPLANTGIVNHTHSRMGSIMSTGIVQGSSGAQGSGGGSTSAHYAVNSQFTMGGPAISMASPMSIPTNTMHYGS
Briefly: Inhibition of CARM1 (unknown origin).

Assay [10] has as its target Histone-lysine N-methyltransferase, H3 lysine-79 specific (Homo sapiens, UniProt Q8TEK3). Nature of the assay: Inhibition of DOT1L in human THP1 cells assessed as reduction in H3K79 methylation measured after 7 days. Type of assay: cell-based.

Histone-lysine N-methyltransferase, H3 lysine-79 specific, sequence (Q8TEK3 whole entry): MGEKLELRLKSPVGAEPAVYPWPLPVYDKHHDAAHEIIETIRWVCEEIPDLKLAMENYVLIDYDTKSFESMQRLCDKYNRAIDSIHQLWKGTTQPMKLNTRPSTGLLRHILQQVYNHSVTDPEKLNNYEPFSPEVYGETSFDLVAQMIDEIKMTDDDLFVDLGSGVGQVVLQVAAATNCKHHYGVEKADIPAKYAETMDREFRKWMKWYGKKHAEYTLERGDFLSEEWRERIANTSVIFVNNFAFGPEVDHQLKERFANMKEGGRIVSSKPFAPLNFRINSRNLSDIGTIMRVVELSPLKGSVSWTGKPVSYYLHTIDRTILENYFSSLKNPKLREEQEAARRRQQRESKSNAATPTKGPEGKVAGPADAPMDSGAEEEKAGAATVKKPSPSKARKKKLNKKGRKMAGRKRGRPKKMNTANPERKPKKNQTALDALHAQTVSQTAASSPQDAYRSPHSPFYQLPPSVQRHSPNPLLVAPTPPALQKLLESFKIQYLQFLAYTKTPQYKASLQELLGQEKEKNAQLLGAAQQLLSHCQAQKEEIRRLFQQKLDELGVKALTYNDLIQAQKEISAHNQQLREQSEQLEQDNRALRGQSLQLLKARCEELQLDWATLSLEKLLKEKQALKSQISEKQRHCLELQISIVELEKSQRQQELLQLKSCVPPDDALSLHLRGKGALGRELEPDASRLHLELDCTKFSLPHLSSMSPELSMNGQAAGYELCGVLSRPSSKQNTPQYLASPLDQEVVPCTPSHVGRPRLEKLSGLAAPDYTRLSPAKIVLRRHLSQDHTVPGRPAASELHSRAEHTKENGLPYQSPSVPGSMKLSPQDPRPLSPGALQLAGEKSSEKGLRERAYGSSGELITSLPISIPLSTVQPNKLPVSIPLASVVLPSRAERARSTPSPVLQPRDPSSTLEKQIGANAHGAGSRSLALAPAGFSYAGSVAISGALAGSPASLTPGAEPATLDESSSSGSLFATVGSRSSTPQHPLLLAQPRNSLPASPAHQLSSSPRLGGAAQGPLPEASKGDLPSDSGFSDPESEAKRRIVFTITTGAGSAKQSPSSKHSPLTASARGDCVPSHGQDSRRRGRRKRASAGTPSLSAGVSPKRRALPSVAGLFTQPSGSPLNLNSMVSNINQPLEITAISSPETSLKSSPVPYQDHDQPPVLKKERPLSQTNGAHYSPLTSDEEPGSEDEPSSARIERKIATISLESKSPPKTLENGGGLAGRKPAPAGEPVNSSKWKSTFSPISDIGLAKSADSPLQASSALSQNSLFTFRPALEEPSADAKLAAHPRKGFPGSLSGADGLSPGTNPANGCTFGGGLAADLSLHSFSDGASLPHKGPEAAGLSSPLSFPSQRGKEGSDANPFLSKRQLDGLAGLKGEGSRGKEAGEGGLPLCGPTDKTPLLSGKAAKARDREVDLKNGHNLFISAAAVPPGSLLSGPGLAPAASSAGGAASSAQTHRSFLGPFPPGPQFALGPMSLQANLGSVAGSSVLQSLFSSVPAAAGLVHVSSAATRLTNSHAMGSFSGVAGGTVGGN
Histone-lysine N-methyltransferase EZH2, sequence (Q15910 whole entry): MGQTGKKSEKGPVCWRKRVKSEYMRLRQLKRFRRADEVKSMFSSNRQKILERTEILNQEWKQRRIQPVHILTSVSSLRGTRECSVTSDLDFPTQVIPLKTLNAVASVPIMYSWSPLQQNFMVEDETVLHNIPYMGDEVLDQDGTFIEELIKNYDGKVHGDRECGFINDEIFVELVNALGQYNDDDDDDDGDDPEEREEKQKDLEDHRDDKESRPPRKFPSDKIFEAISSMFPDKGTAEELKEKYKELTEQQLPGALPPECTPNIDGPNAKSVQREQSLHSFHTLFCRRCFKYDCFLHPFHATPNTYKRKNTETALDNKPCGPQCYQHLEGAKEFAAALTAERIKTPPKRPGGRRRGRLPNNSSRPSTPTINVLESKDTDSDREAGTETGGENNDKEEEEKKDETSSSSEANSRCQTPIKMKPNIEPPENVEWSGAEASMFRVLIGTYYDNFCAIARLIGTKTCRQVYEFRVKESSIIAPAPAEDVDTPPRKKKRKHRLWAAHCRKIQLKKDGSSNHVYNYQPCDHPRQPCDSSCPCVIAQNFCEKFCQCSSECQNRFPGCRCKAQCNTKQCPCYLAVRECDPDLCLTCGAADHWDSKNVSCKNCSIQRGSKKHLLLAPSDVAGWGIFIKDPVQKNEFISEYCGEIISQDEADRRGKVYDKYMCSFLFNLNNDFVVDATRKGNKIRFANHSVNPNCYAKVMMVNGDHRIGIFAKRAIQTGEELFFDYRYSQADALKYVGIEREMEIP
Protein arginine N-methyltransferase 5, sequence (O14744 whole entry): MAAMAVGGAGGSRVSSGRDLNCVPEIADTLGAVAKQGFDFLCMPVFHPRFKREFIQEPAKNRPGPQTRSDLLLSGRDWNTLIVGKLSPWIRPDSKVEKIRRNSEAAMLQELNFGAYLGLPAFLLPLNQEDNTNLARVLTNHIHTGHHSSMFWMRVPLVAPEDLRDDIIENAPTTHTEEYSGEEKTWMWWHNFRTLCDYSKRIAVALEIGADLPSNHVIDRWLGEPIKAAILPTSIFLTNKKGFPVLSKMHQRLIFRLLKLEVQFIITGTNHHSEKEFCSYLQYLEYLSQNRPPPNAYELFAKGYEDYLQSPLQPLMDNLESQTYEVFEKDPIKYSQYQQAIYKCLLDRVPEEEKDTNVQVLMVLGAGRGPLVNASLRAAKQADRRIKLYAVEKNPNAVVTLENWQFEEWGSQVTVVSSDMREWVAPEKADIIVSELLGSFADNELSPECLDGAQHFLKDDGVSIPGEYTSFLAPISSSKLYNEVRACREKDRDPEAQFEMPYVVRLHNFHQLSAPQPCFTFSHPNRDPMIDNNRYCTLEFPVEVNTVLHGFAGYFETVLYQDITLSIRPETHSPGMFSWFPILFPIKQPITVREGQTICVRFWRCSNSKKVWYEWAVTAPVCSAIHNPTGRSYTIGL

The IC50 is the concentration at which inhibition is half-maximal. Take `COc1cc(OC)c(-c2cn3cc(NCCN)c(OC)cc3n2)cc1Cl`: the concentration for half-maximal inhibition (IC50) in assay [1], in [2], in [3], in assay [4] and in [5] was under 10 µM in each case.
As to `CC(CNC(=O)Nc1ccc(C(C)(C)C)cc1)CN(C)C[C@H]1O[C@@H](n2cnc3c(N)ncnc32)[C@H](O)[C@@H]1O` (stereo not given in full), the IC50 in assay [6] was over 50 µM; in assay [7] it was over 50 µM; in assay [8] it was over 50 µM; in [9], over 50 µM; in assay [10], under 0.1 µM.
